The target of one test is human CB1 receptor (Homo sapiens, UniProt P21554). Description: FLIPR membrane potential assay. The following applies: for EC50: membrane potential; for hCB1 Max ± SEM (% CP 55,940): maximum drug effect as percentage of maximally effective (1 µM) CP 55,940; for CB1 selectivity: ratio of CB2 EC50 to CB1 EC50. Format: cell-based.
For the next test, the target named is human CB2 receptor (Homo sapiens, UniProt P34972). Description: FLIPR membrane potential assay. The format is cell-based. Particulars: for EC50: membrane potential; for hCB2 Max ± SEM (% CP 55,940): maximum drug effect as percentage of maximally effective (1 µM) CP 55,940; for hCB2 Max ± SEM (% CP 55,940) at 30 µM: effect at 30 µM, highest concentration tested, relative to 1 µM CP 55,940.
Chain of human CB2 receptor (P34972 whole entry): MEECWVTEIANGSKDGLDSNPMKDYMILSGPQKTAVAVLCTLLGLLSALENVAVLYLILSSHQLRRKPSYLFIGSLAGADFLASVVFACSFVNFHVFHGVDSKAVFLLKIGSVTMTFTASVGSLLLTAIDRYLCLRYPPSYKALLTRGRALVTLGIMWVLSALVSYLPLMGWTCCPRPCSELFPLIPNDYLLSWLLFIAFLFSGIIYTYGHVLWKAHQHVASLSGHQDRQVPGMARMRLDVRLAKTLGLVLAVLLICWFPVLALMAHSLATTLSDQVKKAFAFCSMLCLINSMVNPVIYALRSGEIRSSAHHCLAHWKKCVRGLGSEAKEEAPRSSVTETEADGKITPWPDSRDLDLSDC

[1] abbreviates: hCB2 pEC50 ± SEM, AtT-20-CB2 cells.
[2] abbreviates: hCB1 pEC50 ± SEM, AtT-20-CB1 cells.

The values below come from PMC4971050 (Forensic Toxicology, 2016).

Chain of human CB1 receptor (P21554 whole entry): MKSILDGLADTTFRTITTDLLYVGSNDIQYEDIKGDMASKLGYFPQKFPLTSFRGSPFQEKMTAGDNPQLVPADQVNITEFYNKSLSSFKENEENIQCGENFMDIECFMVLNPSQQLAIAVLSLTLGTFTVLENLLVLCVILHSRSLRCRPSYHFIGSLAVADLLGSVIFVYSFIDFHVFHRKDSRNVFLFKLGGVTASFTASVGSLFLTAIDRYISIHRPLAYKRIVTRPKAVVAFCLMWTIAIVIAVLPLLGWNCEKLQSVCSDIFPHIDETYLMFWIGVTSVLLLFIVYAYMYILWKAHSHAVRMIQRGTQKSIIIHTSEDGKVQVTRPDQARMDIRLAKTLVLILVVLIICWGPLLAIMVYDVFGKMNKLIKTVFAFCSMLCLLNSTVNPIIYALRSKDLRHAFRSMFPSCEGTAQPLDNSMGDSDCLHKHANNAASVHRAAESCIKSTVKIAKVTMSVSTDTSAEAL

Regarding `CC(C)[C@H](NC(=O)c1nn(CC2CCCCC2)c2ccccc12)C(N)=O` [compound 3, (S)-N-(1-Amino-3-methyl-1-oxobutan-2-yl)-1-(cyclohexylmethyl)-1H-indazole-3-carboxamide], the EC50 at human CB1 receptor (hCB1 EC50, AtT-20-CB1 cells) is 7.8 nM. In addition, on human CB1 receptor, the “hCB1 Max ± SEM (% CP 55,940)” value was 142 ± 18 % CP 55,940 and the CB1 selectivity came out at 2.7. On human CB2 receptor (setting [1]), this molecule showed an EC50 of 20.9 nM. Also, the “hCB2 Max ± SEM (% CP 55,940)” value on human CB2 receptor is 104 ± 11 % CP 55,940.
In the case of `CC(C)[C@H](NC(=O)c1nn(Cc2ccc(F)cc2)c2ccccc12)C(N)=O` [compound 4, (S)-N-(1-Amino-3-methyl-1-oxobutan-2-yl)-1-(4-fluorobenzyl)-1H-indazole-3-carboxamide], the EC50 is 2.14 nM on human CB1 receptor (setting [2]) and 6.7 nM at human CB2 receptor (hCB2 EC50, AtT-20-CB2 cells). Moreover, the “hCB1 Max ± SEM (% CP 55,940)” value at human CB1 receptor is on record as 151 ± 14 % CP 55,940. Further, the CB1 selectivity on human CB1 receptor was 3.2. The “hCB2 Max ± SEM (% CP 55,940)” value at human CB2 receptor is listed as 98 ± 10 % CP 55,940.
For the molecule `CCCCCn1nc(C(=O)N[C@H](C(N)=O)C(C)C)c2ccccc21` [compound 5, (S)-N-(1-Amino-3-methyl-1-oxobutan-2-yl)-1-pentyl-1H-indazole-3-carboxamide], the 50% effective concentration (EC50) on human CB1 receptor (hCB1 EC50, AtT-20-CB1 cells) was 6.5 nM; on human CB2 receptor (hCB2 EC50, AtT-20-CB2 cells), 9.9 nM; at human CB2 receptor (setting [1]), 9.77 nM. On human CB1 receptor, the “hCB1 Max ± SEM (% CP 55,940)” value is 142 ± 15 % CP 55,940. At human CB1 receptor, the CB1 selectivity was found to be 1.5. In addition, the “hCB2 Max ± SEM (% CP 55,940)” value at human CB2 receptor is 102 ± 9 % CP 55,940.
Turning to `CC(C)[C@H](NC(=O)c1nn(CCCCCF)c2ccccc12)C(N)=O` [compound 6, (S)-N-(1-Amino-3-methyl-1-oxobutan-2-yl)-1-(5-fluoropentyl)-1H-indazole-3-carboxamide], the EC50 on human CB1 receptor (setting [2]) is 2.82 nM; at human CB2 receptor (hCB2 EC50, AtT-20-CB2 cells), 5.6 nM. The “hCB1 Max ± SEM (% CP 55,940)” value at human CB1 receptor is reported as 132 ± 9 % CP 55,940. Moreover, on human CB1 receptor, the CB1 selectivity turned out to be 2.0. The “hCB2 Max ± SEM (% CP 55,940)” value on human CB2 receptor was 98 ± 8 % CP 55,940.
On to `CC(C)[C@H](NC(=O)c1c2ccccc2nn1CC1CCCCC1)C(N)=O` [compound 7, (S)-N-(1-Amino-3-methyl-1-oxobutan-2-yl)-2-(cyclohexylmethyl)-2H-indazole-3-carboxamide], for which the “hCB2 Max ± SEM (% CP 55,940) at 30 µM” value at human CB2 receptor is reported as 45 ± 7 (at 30 µM) % CP 55,940.
On to `CC(C)[C@H](NC(=O)c1c2ccccc2nn1Cc1ccc(F)cc1)C(N)=O` [compound 8, (S)-N-(1-Amino-3-methyl-1-oxobutan-2-yl)-2-(4-fluorobenzyl)-2H-indazole-3-carboxamide], for which the “hCB1 Max ± SEM (% CP 55,940) at 30 µM” value on human CB1 receptor (effect at 30 µM, highest concentration tested, relative to 1 µM CP 55,940) is on record as 61 ± 12 (at 30 µM) % CP 55,940. On human CB2 receptor, the “hCB2 Max ± SEM (% CP 55,940) at 30 µM” value was 25 ± 4 (at 30 µM) % CP 55,940.
With `CCCCCn1nc2ccccc2c1C(=O)N[C@H](C(N)=O)C(C)C` [compound 9, (S)-N-(1-Amino-3-methyl-1-oxobutan-2-yl)-2-pentyl-2H-indazole-3-carboxamide], the EC50 on human CB1 receptor (hCB1 EC50, AtT-20-CB1 cells) was 4080 nM; at human CB2 receptor (hCB2 EC50, AtT-20-CB2 cells) it was 4120 nM. Further, the CB1 selectivity at human CB1 receptor turned out to be 1.0.
As for `CC(C)[C@H](NC(=O)c1c2ccccc2nn1CCCCCF)C(N)=O` [compound 10, (S)-N-(1-Amino-3-methyl-1-oxobutan-2-yl)-2-(5-fluoropentyl)-2H-indazole-3-carboxamide], the EC50 is 1930 nM at human CB1 receptor (hCB1 EC50, AtT-20-CB1 cells); 1910 nM at human CB1 receptor (setting [2]); 2980 nM on human CB2 receptor (hCB2 EC50, AtT-20-CB2 cells). Moreover, the CB1 selectivity on human CB1 receptor is 1.5. Moreover, the “hCB2 Max ± SEM (% CP 55,940) at 30 µM” value at human CB2 receptor is reported as 47 ± 15 (at 30 µM) % CP 55,940.
